Experimental data: US20240299499A1, “Therapeutic Peptide Formulations” (Eli Lilly and Company, priority 2020, published 2024)
In brackets after ≈: the same amount, converted by molar mass. Read-outs that look alike come from different tables or passages of the source.

Columns and labels:
Assay type in all cases: physicochemical
[1] = Solubility of Compound 1 at 25° C. between pH 5.0 and pH 7.0 (UV-Vis at 280 nm)
Method: All solutions comprised 10 mM tris (1.21 g/L) and 0.05% EDTA (0.5 g/L). The solution pH was titrated using either 1N hydrochloric acid or concentrated tris base stock solution.
The concentration of Compound 1 was measured at 280 nm by a UV-Vis spectrophotometer (SoloVPE). UV-Vis spectrophotometer is commonly used for quantification of proteins or peptides in solution. A characteristic UV absorption spectrum around 280 nm is predominately from the aromatic amino acids such as tryptophan (Trp, W) and tyrosine (Tyr, Y). When the molar extinction coefficient of the protein or peptide is known, the Beer-Lambert law is used to accurately quantitate amount of protein or peptide by UV absorbance, assuming the molecule contains no UV-absorbing non-proteinaceous components such as bound nucleotide cofactors, heme, or iron-sulfur centers. Compound 1 has tyrosine amino acid residues at positions 10 and 13 and has a tryptophan amino acid residue at position 25 and has an extinction coefficient of 1.86 mL·mg^−1·cm^−1 (as calculated by the Pace Method). Measuring the peptide concentration at different pH conditions by this method is appropriate for Compound 1.

[2] = Solution formulation feasibility study: covalent aggregates by SEC; settings: pH values of 7.0-8.5
Method: Solutions were filtered through […] PVDF filters. In a laminar flow hood, the solutions were filled into glass vials. Vials were capped, and stored at 5° C., 25° C. and 30° C. Samples were withdrawn and submitted for testing as follows: (a) initial testing; (b) two weeks; and (c) one month. The formation of covalent aggregates was measured by size-exclusion chromatography (SEC).

[3] = Effect of antioxidants: chemical stability by RP-HPLC (total impurities, Trp oxidation); settings: refrigerated condition
Method: Solutions were filtered through […] PVDF filters. In a laminar flow hood, the solutions were filled into glass vials. Vials were capped, and stored at 5° C., 25° C. and 30° C. Four formulations comprising Compound 1 were prepared to evaluate the stabilization efficacy of antioxidants, namely, EDTA, citrate and methionine. […] Subsequently, a fifth sample containing higher concentration of methionine (100 mM vs. 10 mM) was prepared to evaluate the effect of methionine concentration (Table 15, Lot No. 26). Samples were prepared, and stored at 5° C., 25° C. and 30° C. for up to 3 months. At appropriate times, stability-indicating assays were performed to assess the physical and chemical stability.
At 25° C. and 30° C., there are significant differences in stabilization efficacy.

solubility ([1]; 10 mM tris buffer with 0.05% EDTA, aqueous buffer, Solution pH 6.16, 10 mM tris and 0.05% EDTA, 25° C., read-out: Compound 1 concentration in solution): 14.5 mg/mL (≈ 3.19 mM)
solubility ([1]; 10 mM tris buffer with 0.05% EDTA, aqueous buffer, Solution pH 6.84, 10 mM tris and 0.05% EDTA, 25° C., read-out: Compound 1 concentration in solution): 44.6 mg/mL (≈ 9.76 mM)
Compound 1 concentration in solution ([1]; Solution pH 5.31, 10 mM tris and 0.05% EDTA, 25° C.): 0.00 mg/mL
solubility ([1]; lower pH values (e.g. pH 5.0 to 6.5)): sub-optimal solubility
solubility (change with pH) ([1]; pH increased from 5.3 to 6.8): increased significantly
solubility by extrapolation of the data ([1]; pH values of 7.0 and above): higher
stability in certain formulations [2]: sub-optimal stability
chemical degradation by RP-HPLC [3]: not substantial
SMILES: CC(C)C[C@H](NC(=O)[C@H](CC(C)C)NC(=O)[C@H](Cc1c[nH]c2ccccc12)NC(=O)[C@H](CCC(=O)O)NC(=O)[C@@H](NC(=O)[C@H](Cc1ccccc1)NC(=O)[C@H](CCC(=O)O)NC(=O)[C@H](CCCCNC(=O)COCCOCCNC(=O)COCCOCCNC(=O)CC[C@H](NC(=O)CCCCCCCCCCCCCCCCCCC(=O)O)C(=O)O)NC(=O)[C@H](C)NC(=O)[C@H](CCCCN)NC(=O)[C@H](CCCCN)NC(=O)[C@H](CCC(=O)O)NC(=O)[C@H](CC(=O)O)NC(=O)[C@H](CC(C)C)NC(=O)[C@H](Cc1ccc(O)cc1)NC(=O)[C@H](CCCCN)NC(=O)[C@H](CO)NC(=O)[C@H](Cc1ccc(O)cc1)NC(=O)[C@H](CC(=O)O)NC(=O)[C@H](CO)NC(=O)[C@@H](NC(=O)[C@H](Cc1ccccc1)NC(=O)[C@@H](NC(=O)CNC(=O)[C@H](CCC(N)=O)NC(=O)C(C)(C)NC(=O)[C@@H](N)Cc1c[nH]cn1)[C@@H](C)O)[C@@H](C)O)C(C)C)C(=O)N[C@@H](CCC(=O)O)C(=O)NCC(=O)NCC(=O)N1CCC[C@H]1C(=O)N[C@@H](CO)C(=O)N[C@@H](CO)C(=O)NCC(N)=O [Compound 1]
